In publication PMC7026418, “The kinase polypharmacology landscape of clinical PARP inhibitors” (Scientific Reports, 2020):
Where two headings read alike, the source gives them in different places. Blank lines part the entries; values can stand above or below the compound they belong to.

How the values were obtained:
Assay in all cases: biochemical
Design in all cases: DiscoveRx KINOMEscan active site-directed competition binding; percent of control kinase bound to immobilised ligand
[1] = molecular target: EGFR(G719S) (Homo sapiens, UniProt P00533, G719S)
[2] = molecular target: PIK3CA(E545A) (Homo sapiens, UniProt P42336, E545A)
[3] = molecular target: EGFR(T790M) (Homo sapiens, UniProt P00533, T790M)
[4] = molecular target: T1, BMX (Homo sapiens, UniProt P51813)
T1 sequence (P51813 1-675): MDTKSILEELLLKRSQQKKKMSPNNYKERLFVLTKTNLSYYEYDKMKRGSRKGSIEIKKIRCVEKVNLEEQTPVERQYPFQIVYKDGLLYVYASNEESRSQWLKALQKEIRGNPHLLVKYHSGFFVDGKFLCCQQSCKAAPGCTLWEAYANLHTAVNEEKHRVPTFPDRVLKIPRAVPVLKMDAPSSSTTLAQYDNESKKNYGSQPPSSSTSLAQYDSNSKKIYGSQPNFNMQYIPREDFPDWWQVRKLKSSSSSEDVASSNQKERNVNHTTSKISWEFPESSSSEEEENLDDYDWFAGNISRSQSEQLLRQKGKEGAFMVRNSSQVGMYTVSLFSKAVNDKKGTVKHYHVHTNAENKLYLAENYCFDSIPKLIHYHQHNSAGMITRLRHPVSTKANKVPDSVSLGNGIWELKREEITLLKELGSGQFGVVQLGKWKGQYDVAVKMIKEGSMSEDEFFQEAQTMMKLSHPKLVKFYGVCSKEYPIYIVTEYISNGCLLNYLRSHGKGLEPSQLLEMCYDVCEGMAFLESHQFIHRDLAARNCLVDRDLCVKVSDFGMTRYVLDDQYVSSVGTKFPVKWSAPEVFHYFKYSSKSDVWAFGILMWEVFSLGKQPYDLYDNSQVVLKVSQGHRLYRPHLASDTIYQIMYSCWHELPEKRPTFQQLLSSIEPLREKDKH

[5] = molecular target: PIK3CA(H1047L) (Homo sapiens, UniProt P42336, H1047L)
[6] = molecular target: T2, PIK3CD (Homo sapiens, UniProt O00329)
T2 sequence (O00329 1-1044): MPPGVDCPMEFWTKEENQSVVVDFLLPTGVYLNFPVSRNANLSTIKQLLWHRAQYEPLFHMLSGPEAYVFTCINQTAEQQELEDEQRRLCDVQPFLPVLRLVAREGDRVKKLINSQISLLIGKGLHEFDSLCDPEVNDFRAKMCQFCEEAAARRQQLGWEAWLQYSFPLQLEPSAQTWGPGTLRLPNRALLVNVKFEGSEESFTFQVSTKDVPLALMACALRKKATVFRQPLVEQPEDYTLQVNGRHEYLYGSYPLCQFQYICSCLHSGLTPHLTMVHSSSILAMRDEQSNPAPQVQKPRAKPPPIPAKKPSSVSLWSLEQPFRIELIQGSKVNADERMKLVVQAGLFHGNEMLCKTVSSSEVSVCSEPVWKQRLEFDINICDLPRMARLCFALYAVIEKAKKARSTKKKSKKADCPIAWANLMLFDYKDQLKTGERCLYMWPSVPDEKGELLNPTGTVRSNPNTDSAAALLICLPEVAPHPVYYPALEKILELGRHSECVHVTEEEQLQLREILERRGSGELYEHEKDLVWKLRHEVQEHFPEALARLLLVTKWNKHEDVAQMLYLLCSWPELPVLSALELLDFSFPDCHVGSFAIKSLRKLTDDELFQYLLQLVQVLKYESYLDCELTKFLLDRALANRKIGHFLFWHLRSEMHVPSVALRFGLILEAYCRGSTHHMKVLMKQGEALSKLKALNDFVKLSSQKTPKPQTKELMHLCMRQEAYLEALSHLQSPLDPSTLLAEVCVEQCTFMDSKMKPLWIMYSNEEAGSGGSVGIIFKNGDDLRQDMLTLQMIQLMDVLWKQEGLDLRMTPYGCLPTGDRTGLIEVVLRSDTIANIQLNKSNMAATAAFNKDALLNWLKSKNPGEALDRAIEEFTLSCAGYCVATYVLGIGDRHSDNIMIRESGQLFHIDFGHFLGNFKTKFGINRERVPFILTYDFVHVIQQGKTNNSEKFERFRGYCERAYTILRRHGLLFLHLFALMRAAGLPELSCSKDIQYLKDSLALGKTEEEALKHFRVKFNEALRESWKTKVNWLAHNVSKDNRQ

[7] = molecular target: IGF1R (Homo sapiens, UniProt P08069)
[8] = read-out: Niraparib (MK-4827) / %Ctrl @ 10000nM
[9] = read-out: Olaparib / %Ctrl @ 10000nM
[10] = read-out: Rucaparib / %Ctrl @ 10000nM, binding competition, % of control
[11] = read-out: Talazoparib (BMN 673) / %Ctrl @ 10000nM

EGFR(G719S), sequence (P00533 whole entry G719S): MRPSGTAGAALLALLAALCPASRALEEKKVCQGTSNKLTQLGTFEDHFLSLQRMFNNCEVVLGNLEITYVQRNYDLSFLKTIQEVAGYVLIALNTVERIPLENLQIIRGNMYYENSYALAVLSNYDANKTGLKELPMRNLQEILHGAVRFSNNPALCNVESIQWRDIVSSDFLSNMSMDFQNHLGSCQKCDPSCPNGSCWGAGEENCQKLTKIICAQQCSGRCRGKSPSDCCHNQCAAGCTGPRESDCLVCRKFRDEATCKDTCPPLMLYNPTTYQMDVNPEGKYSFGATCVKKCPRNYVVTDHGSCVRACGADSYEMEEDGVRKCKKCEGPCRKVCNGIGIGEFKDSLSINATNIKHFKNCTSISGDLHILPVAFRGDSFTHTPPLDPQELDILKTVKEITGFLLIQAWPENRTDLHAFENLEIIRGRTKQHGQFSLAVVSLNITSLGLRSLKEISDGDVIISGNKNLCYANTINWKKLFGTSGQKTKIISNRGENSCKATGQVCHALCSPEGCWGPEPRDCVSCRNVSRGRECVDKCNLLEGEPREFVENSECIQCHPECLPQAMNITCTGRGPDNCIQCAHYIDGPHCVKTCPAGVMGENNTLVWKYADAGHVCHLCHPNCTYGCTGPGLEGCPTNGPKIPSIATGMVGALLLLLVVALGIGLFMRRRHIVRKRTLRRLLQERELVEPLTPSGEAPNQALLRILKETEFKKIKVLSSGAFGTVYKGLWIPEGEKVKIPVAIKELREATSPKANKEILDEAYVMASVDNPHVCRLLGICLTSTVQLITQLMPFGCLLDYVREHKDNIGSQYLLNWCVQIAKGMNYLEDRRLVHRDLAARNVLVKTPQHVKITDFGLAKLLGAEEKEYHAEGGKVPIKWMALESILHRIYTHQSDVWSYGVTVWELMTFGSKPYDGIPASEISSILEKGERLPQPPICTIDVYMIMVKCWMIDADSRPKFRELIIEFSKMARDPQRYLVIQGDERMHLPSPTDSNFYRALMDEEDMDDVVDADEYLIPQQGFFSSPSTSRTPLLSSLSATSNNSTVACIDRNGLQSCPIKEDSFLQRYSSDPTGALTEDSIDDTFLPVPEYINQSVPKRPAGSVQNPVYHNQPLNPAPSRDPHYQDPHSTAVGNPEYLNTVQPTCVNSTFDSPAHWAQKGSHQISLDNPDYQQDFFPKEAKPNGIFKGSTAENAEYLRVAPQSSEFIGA
EGFR(T790M), sequence (P00533 whole entry T790M): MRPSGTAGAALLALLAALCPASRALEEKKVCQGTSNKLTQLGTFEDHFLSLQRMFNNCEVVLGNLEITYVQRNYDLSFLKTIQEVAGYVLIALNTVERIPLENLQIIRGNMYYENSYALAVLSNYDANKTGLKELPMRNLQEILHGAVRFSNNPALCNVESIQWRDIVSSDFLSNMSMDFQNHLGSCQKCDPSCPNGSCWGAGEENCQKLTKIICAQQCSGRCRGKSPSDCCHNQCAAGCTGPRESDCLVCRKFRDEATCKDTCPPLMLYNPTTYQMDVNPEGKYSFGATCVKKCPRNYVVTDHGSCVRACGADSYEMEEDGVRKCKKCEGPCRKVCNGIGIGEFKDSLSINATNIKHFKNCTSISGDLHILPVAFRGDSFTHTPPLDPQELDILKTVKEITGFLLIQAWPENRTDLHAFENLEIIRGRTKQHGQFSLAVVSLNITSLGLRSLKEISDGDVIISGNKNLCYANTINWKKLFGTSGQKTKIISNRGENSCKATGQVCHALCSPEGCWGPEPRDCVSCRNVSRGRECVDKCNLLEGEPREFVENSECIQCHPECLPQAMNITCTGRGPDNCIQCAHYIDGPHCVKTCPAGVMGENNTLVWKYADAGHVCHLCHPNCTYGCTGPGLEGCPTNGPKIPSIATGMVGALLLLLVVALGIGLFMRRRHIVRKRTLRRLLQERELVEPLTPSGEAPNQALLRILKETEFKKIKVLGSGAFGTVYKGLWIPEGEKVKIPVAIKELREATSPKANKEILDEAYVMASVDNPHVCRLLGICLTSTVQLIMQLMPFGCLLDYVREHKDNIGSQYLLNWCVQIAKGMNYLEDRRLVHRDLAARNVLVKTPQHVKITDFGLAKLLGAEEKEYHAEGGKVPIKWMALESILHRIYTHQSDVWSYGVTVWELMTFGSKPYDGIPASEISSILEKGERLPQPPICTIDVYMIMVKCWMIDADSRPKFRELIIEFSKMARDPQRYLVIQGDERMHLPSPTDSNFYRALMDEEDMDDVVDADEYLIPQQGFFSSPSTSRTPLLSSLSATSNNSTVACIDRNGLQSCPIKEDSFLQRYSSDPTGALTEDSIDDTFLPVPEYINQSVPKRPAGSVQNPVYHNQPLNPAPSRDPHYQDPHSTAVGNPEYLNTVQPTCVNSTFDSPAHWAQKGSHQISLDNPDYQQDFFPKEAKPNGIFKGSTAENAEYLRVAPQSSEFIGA
PIK3CA(E545A), sequence (P42336 whole entry E545A): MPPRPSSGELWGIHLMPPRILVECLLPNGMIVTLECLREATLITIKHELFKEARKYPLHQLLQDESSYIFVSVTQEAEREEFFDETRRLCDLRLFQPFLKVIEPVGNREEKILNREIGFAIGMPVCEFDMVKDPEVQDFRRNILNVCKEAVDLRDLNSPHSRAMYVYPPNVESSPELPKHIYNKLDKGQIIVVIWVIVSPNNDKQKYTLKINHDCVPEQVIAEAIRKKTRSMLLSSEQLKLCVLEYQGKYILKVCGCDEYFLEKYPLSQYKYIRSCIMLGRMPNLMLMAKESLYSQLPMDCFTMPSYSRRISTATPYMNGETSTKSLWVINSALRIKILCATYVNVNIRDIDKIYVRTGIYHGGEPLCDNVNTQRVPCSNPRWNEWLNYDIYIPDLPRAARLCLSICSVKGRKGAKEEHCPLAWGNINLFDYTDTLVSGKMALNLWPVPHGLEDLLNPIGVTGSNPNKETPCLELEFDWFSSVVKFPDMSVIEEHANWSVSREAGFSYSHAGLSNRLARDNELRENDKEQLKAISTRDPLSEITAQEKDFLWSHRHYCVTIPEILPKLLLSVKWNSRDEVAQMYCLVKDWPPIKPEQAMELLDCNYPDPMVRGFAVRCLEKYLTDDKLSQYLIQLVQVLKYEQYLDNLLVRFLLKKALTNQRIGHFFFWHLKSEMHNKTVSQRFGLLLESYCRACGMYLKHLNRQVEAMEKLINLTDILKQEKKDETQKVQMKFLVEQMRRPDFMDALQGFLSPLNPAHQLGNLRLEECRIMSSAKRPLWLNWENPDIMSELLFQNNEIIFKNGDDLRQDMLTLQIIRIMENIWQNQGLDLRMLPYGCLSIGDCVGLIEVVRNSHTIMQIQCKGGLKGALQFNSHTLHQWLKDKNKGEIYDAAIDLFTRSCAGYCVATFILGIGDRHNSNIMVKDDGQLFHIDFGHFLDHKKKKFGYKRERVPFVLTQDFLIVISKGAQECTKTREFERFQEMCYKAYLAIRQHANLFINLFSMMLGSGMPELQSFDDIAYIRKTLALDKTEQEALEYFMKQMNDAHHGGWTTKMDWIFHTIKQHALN
PIK3CA(H1047L), sequence (P42336 whole entry H1047L): as the sequence (P42336 whole entry E545A) above, with A545E, H1047L counted along it
IGF1R, sequence (P08069 whole entry): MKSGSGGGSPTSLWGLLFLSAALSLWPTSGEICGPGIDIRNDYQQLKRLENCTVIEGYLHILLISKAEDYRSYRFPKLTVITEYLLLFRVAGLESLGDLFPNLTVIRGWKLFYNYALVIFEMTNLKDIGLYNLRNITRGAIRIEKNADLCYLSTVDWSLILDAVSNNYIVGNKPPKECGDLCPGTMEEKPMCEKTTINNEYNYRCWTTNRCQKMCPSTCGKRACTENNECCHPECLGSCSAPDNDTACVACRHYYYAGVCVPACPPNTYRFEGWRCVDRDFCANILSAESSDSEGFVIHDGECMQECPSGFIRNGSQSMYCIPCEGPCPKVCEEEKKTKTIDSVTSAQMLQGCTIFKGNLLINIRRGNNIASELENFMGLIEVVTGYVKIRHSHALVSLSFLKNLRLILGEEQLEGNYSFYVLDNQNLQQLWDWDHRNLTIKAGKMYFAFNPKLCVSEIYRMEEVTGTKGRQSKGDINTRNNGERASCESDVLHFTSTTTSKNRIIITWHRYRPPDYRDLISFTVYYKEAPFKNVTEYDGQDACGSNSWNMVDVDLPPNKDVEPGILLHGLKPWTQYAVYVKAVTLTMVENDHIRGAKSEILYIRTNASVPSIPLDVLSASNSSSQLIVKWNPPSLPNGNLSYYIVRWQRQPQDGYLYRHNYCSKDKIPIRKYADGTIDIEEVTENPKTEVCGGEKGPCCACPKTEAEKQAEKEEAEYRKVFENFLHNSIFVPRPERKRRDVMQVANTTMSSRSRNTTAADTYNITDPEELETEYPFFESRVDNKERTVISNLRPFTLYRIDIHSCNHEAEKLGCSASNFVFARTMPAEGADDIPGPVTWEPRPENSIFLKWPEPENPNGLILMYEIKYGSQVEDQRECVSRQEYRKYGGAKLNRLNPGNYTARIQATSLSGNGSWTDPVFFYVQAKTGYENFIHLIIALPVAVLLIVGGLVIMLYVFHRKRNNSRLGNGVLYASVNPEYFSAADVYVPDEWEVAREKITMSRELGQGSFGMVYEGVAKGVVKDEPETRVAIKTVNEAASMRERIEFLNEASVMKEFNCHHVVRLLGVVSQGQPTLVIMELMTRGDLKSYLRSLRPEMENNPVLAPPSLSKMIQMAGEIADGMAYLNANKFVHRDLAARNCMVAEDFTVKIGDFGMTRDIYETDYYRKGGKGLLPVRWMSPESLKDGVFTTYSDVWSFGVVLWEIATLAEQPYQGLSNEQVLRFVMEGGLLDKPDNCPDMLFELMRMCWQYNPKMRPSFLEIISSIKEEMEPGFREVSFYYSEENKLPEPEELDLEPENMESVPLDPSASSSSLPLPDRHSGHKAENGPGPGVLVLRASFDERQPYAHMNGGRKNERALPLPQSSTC

SMILES: NC(=O)c1cccc2cn(-c3ccc([C@@H]4CCCNC4)cc3)nc12 [Niraparib]
percent of control binding at 10 µM [1, 8]: 74%
percent of control binding at 10 µM [2, 8]: 98%
percent of control binding at 10 µM [3, 8]: 93%
percent of control binding at 10 µM [4, 8]: 87%
percent of control binding at 10 µM [5, 8]: 100%
percent of control binding at 10 µM [6, 8]: 73%
percent of control binding at 10 µM [7, 8]: 97%

percent of control binding at 10 µM [1, 9]: 94%
percent of control binding at 10 µM [2, 9]: 90%
percent of control binding at 10 µM [3, 9]: 84%
percent of control binding at 10 µM [4, 9]: 98%
percent of control binding at 10 µM [5, 9]: 87%
percent of control binding at 10 µM [6, 9]: 75%
percent of control binding at 10 µM [7, 9]: 95%
SMILES: O=C(c1cc(Cc2n[nH]c(=O)c3ccccc23)ccc1F)N1CCN(C(=O)C2CC2)CC1 [Olaparib]

percent of control binding at 10 µM [1, 10]: 89%
percent of control binding at 10 µM [2, 10]: 85%
percent of control binding at 10 µM [3, 10]: 75%
percent of control binding at 10 µM [4, 10]: 91%
percent of control binding at 10 µM [5, 10]: 87%
percent of control binding at 10 µM [6, 10]: 64%
percent of control binding at 10 µM [7, 10]: 98%
SMILES: CNCc1ccc(-c2[nH]c3cc(F)cc4c3c2CCNC4=O)cc1 [Rucaparib]

percent of control binding at 10 µM [1, 11]: 99%
percent of control binding at 10 µM [2, 11]: 73%
percent of control binding at 10 µM [3, 11]: 65%
percent of control binding at 10 µM [4, 11]: 100%
percent of control binding at 10 µM [5, 11]: 100%
percent of control binding at 10 µM [6, 11]: 82%
percent of control binding at 10 µM [7, 11]: 87%
SMILES: Cn1ncnc1[C@H]1c2n[nH]c(=O)c3cc(F)cc(c23)N[C@@H]1c1ccc(F)cc1 [Talazoparib]
